From ChEMBL document CHEMBL4130385, “Structure-function studies of BPP-BrachyNH2 and synthetic analogues thereof with Angiotensin I-Converting Enzyme” (Eur J Med Chem, 2017) come the findings set out here.

As usually defined, the IC50 is the concentration that gives 50% inhibition. The CC50 is the concentration that lowers cell viability or growth by half.

Data set [1] deals with T1, Angiotensin-converting enzyme (Rattus norvegicus, UniProt P47820).
T1 sequence (P47820 whole entry): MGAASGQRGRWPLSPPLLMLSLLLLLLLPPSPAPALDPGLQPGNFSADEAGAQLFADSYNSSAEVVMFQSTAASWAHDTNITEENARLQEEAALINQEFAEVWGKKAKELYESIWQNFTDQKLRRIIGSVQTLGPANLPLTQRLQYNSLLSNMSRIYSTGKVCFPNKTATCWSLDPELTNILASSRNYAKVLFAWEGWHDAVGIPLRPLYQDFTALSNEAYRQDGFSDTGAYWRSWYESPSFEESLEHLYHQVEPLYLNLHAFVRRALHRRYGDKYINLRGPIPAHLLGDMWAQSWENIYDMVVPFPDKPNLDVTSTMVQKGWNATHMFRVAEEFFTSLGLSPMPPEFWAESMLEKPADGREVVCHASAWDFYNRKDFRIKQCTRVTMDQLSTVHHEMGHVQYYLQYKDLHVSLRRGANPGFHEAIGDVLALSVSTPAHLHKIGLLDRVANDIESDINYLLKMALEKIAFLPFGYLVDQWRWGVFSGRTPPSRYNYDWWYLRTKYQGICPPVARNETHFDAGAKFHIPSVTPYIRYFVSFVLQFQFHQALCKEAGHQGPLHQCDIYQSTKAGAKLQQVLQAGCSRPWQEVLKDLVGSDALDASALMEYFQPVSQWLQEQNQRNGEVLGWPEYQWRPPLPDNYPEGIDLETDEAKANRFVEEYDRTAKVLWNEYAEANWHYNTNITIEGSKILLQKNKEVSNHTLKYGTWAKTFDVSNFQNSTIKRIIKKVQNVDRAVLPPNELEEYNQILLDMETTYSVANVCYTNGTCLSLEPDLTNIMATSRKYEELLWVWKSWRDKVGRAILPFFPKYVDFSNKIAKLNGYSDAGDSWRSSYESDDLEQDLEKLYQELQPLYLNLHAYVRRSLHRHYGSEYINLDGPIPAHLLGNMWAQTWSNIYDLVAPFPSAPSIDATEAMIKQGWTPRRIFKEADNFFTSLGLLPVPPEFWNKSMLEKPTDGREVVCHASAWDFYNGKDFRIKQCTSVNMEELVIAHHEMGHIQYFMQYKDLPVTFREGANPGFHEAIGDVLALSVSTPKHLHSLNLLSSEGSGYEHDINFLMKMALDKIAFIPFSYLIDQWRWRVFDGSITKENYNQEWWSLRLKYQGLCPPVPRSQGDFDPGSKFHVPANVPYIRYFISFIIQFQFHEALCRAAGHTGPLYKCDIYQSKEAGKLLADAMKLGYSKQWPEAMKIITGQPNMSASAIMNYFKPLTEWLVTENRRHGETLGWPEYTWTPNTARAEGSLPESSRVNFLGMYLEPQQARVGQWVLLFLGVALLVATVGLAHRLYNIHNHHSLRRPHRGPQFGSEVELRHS
The data set can be described thus: Inhibition of Wistar rat plasma angiotensin 1-converting enzyme using H-hippuryl-His-Leu-OH as substrate after 20 mins by fluorescence assay.

Data set [2] in a line: (§1) Cytotoxicity against BALB/c mouse peritoneal macrophages assessed as reduction in cell viability after 48 hrs by MTT assay. It is filed as cell-based, Peritoneal macrophage. To be noted: BALB/c, peritoneal macrophages. (Formazan colour is commonly taken as a measure of viable cells.)
Another data set deals with Erythrocyte. The data set can be described thus: Hemolytic activity against sheep blood erythrocytes at 10^-6 to 10^-4 M after 1 hr. The class given is ADME, cell-based, Ovis aries.
Data set [3] has as its system Peritoneal macrophage. The data set can be described thus: Cytotoxicity against BALB/c mouse peritoneal macrophages assessed as reduction in cell viability at 10^-4 M after 48 hrs by MTT assay relative to control. The class given is cell-based. To be noted: 100 µM.
For data set [4], the system named is Peritoneal macrophage. The data set can be described thus: Cytotoxicity against BALB/c mouse peritoneal macrophages assessed as reduction in cell viability at 5 x 10^-4 M after 48 hrs by MTT assay relative to control. The class given is cell-based. To be noted: 500 µM.
Data set [5] has as its system Peritoneal macrophage. Described as §1. To be noted: peritoneal macrophage, 48 h. It is filed as cell-based.

In the case of H-WPPPKVS-NH2, in data set [1], the IC50 was 162 µM. In addition, in data set [2], the CC50 at 48 h was 33600 µM. Besides, the Activity entry with Erythrocyte is “Non-Toxic”; in the data set with Peritoneal macrophage [3], 7.7%; in the data set on Peritoneal macrophage [4], 14.8%.
With H-WPPPKVSP-NH2, the IC50 in data set [1] came to 5.51 µM. The CC50 at 48 h in data set [2] came out at 176 µM. Also, the Activity entry in the data set with Peritoneal macrophage [5] was “Dose-dependent effect”; with Erythrocyte it was “Non-Toxic”.
As to H-PPPKVSP-NH2, 17.5 µM corresponded to half-maximal inhibition in data set [1] (IC50). Moreover, in data set [2], the CC50 at 48 h turned out to be 81.9 µM. Moreover, the Activity entry with Peritoneal macrophage [5] is listed as “Dose-dependent effect”; in the data set on Erythrocyte, “Non-Toxic”.
